# Laboratory results as given in patent EP4778522A1, “USE OF PYRROLOPYRIMIDINE COMPOUND AND COMPOSITION THEREOF” (Guangzhou Joyo Pharmatech Co., Ltd., priority 2023, dated 2025).
# “And” between values parts separate entries of the source, which are not always exact repeats. Equal values may be shown once. Marks after values point to notes of the source that are not given here.
# Test system: FITC-induced mouse atopic dermatitis model
# Assay: FITC-induced mouse atopic dermatitis model: change in ear thickness
# Assay type: in vivo, Balb/c mice
# Conditions: 20 mg/dose topical twice a day; for Ear thickness Day 5 / Ear thickness Day 6 / Ear thickness Day 12 / Ear thickness Day 13 / ΔEar thickness Day 6-Day 5 / ΔEar thickness Day 13-Day 5: right ear; for Inhibitory rate% (Day 13): Δ ear thickness vs model group
# Excerpt: • 1) Animals: female Balb/c mice, specific pathogen-free (SPF), aged 6-7 weeks at grouping, with 10 mice per group. The animals were provided by Shanghai Jihui Laboratory Animal Care Co., Ltd. • 2) Reagents, positive drugs and test drugs
# FITC induction method: experimental animals were subjected to examination in an adaptation period and weight screening after examined to be qualified. The animals were randomly divided into 6 experimental groups according to the weight, including a normal group, a model group, a clobetasol propionate ointment group, a 0.5% Compound I group, a 1% Compound I group and a 2% Compound I group, with 10 mice in each group. On day 0 and day 1, after all the experimental animals were administered for 2 hours, the animals were anesthetized with zoletil (25 mg/kg) and xylazine (5 mg/kg), and then subjected to sensitization operation at the abdomen (a sensitized part). The abdominal part of the experimental animal at about 3×4 cm was depilated before sensitization, and then 0.5% FITC (dissolved in dibutyl phthalate/acetone solution) was applied to the alopecic areas of the abdomens of the experimental animals in model group for sensitization. An equal volume of dibutyl phthalate/acetone was given to the alopecic areas of the abdomens of the experimental animals in the normal-blank gel group.
# On day 5 and day 12, all the experimental animals were anesthetized with 1-4% isoflurane (all subsequent measurements on ear thickness were performed under anesthesia with isoflurane), and the thickness of the right-side ear margins of the experimental animals was measured as a baseline. On day 5 and day 12, 0.5% FITC was applied to both the inner and outer sides of the right ears of the experimental animals in model group for challenge treatment. An equal volume of dibutyl phthalate/acetone solution was given to the experimental animals in the normal-blank gel group.
# On day 6 and day 13, 24 hours after each FITC challenge, the thickness of the right-side ear margins of all the experimental animals was measured. Ear swelling response was determined by the change in the ear thickness before and after FITC challenge measured with a digital display thickness gauge, the measurement positions were basically kept constant, and the mean change in the ear thickness (ΔT±S.E.M.) was recorded for each group.
smiles,measurement,setting,value
CN(c1ncnc2[nH]ccc12)[C@@H]1CCc2cc(C#N)nn2C1 [compound I],Ear thickness Day 5,0.5% gel,0.17 mm
same,Ear thickness Day 6,0.5% gel,0.19 mm
same,Ear thickness Day 12,0.5% gel,0.18 mm
same,Ear thickness Day 13,0.5% gel,0.19 mm
same,ΔEar thickness Day 6-Day 5,0.5% gel,0.0250 mm
same,ΔEar thickness Day 13-Day 5,0.5% gel,0.0170 ± 0.0033 mm
same,ΔEar thickness Day 13-Day 5,"0.5% gel, listed as compound 1",0.0170 mm
same,Inhibitory rate% (Day 13),0.5% gel,82.65%
same,Inhibitory rate% (Day 13),"0.5% gel, listed as compound 1",82.65%****
same,Ear thickness Day 5,1% gel,0.17 mm
same,Ear thickness Day 6,1% gel,0.20 mm
same,Ear thickness Day 12,1% gel,0.18 mm
same,Ear thickness Day 13,1% gel,0.19 mm
same,ΔEar thickness Day 6-Day 5,1% gel,0.0280 mm
same,ΔEar thickness Day 13-Day 5,1% gel,0.0250 ± 0.0043 mm and 0.0250 mm
same,Ear thickness Day 5,2% gel,0.17 mm
same,Ear thickness Day 6,2% gel,0.20 mm
same,Ear thickness Day 12,2% gel,0.18 mm
same,Ear thickness Day 13,2% gel,0.20 mm
same,ΔEar thickness Day 6-Day 5,2% gel,0.0260 mm
same,ΔEar thickness Day 13-Day 5,2% gel,0.0250 ± 0.0017 mm and 0.0250 mm
